Laboratory results published in patent US20030134779A1, “Method and composition for treatment and/or prevention of antibiotic-resistant microorganism infections” (priority 2002, published 2003).

Legend:
S. aureus strains [1] = assay: MIC / FIC determination, summary over strains; assay type: cell-based, Staphylococcus aureus; conditions: with 0.5 mg/ml LF; all tested strains except ATCC 25923 and SHY97-3906 (needed 1 mg/ml LF)
Excerpt: Staphylococcus aureus strains ATCC 25923 and 6538 and Escherichia coli ATCC 25922 were obtained from the American Type Culture Collection. Eight bovine mastitis clinical isolates of S. aureus (SHY97-3906, -3923, -4085 -4242, -4320 and -4343, RFT-1 and RFT-5) and one isolate of E. coli SHY97-3923-2 and one isolate of Kiebsiella pneumoniae SHY99-723-1 were kindly provided by the Laboratoire Provincial de Pathologie Animale of St-Hyacinthe and of Rock-Forest (Quebec, Canada), respectively. Nine β-lactam antibiotics resistant S. aureus strains (PC-1, NCTC 9789, 2076, 22260, ST79/741, 3804, RN9, FAR8, and FAR10) were obtained from Vanderbilt University School of Medicine (Nashville, Tenn., USA). […]
The MICs were determined by both macrodilution (1 ml/tube) and microdilution (100 μl/well) in sterile 96 well microtiter plates (International Nunc, Napierville, Ill.) techniques in three separate experiments according to the National Committee for Clinical Laboratory Standards (1992 and 1999) in three separate experiments. […] Effect of LF combination with antibiotic on MICs were determined by adding 0.5 mg or 1 mg/ml of LF to each antibiotic dilution. […] Effect of LF or LFC combination with antibiotic on MIC was also determined by checkerboard method using 96 well microtiter plates. […] The fractional inhibitory concentration (FIC) was calculated as described by Eliopoulos and Moellering (1991). […]

S. aureus SHY97-4320 = assay: Cell morphology by transmission electron microscopy; assay type: cell-based, Staphylococcus aureus
Method: Microorganisms were prepared for transmission electron microscopy by fixation with glutaraldehyde followed by ferritin labelling. This method allows good- preservation of capsular material. Briefly, bacterial cells grown in the presence or absence of antibiotics were fixed in cacodylate buffer (0.1 M, pH 7.0) containing 5% (v/v) glutaraldehyde, for 2 h at 20° C. Fixed microorganims were suspended in cacodylate buffer and allowed to react with the polycationic ferritin (Sigma Chemicals, St-Louis, Mo.; final concentration 1.0 mg/ml) for 30 min at 20° C. The reaction was slowed down by 10-fold dilution with buffer, and the microorganisms were centrifuged and washed three times in cacodylate buffer. Bacterial cells were then immobilized in 4% (w/v) agar, washed 5 times in cacodylate buffer and post-fixed with 2% (w/v) osmium tetroxide for 2 h. Washings were repeated as above, and the samples dehydrated in a graded series of acetone washes. Samples were then washed twice in propylene oxide and embedded in Spurr low-viscosity resin. Thin sections were post-stained with uranyl acetate and lead citrate and examined with an electron microscope (Philips 201) at an accelerating voltage of 60 kV.

[2] = test system: β-lactamase activity of S. aureus SHY97-4320; assay: β-lactamase activity, nitrocefin assay, bovine LF/LFC; assay type: cell-based; conditions: 8-μg/ml penicillin G alone
Method: The effects of sub-MICs of LF (1 mg/ml), LFC (32 and 64 μg/ml) alone or in combination with ampicillin (4μg/ml) or penicillin G (8 μg/ml) were evaluated on the β-lactamase activity of S. aureus strains SHY97-4320 and PC-1. The chromogenic cephalosporin nitrocefin (Becton Dickinson, Microbiology, Cockeysville, Md.) was used in a quantitative spectrophotometric assay. Bacterial cells were first exposed during 4 and 22-h to drugs in broth. The number of bacteria (cfu/ml) were determined and cells aliquots were centrifuged at each point in time. The pellets were suspended in 10 mM HEPES buffer (pH 7.4) to an OD415 nm of 1 for PC-1 and 2 for SHY97-4320. Nitrocefin (100 μM) was added to 100 μl of cells in a final volume of 1 ml. Hydrolysis was measured at 486 nm on spectrophotometer. β-lactamase activity was expressed as ΔO.D.486 nm/min and corrected for bacterial OD.

S. aureus strains [3] = assay: Disk diffusion susceptibility test and cefinase test; assay type: cell-based, Staphylococcus aureus; conditions: β-lactamase producing strains
Method: For quality control, disk diffusion susceptibility tests, as recommended by the National Committee for Clinical Laboratory Standard, were performed on all strains using standard disk of various antibiotics. After 18 h of incubation at 37° C., the diameter of the zone of complete inhibition of bacterial growth around each disk was measured. Isolates were categorized as sensitive or resistant for a given antibiotic using the recommended interpretative guidelines of the manufacturer.

CC1(C)S[C@@H]2[C@H](NC(=O)Cc3ccccc3)C(=O)N2[C@H]1C(=O)O [penicillin G, Penicillin G]
increase of inhibitory activity of penicillin (S. aureus strains [1]): two-fold
cell morphology (S. aureus SHY97-4320; penicillin G 8 μg/ml alone, 4-h): no visible effect
cell morphology (S. aureus SHY97-4320; penicillin G 8 μg/ml combined with LF 1 mg/ml): morphology changes were similar to that observed in the susceptible strain
β-lactamase activity [2]: a large increase in β-lactamase activity
susceptibility by standard disk diffusion and cefinase test (S. aureus strains [3]): resistance
